According to US20210276987A1, “PHARMACEUTICAL AGENTS FOR USE IN SMOKING AND TOBACCO CESSATION” (Washington State University, priority 2018, published 2021):
Counter-ions that a name gives are not always drawn.

Key:
CYP2E1 = CYP2E1 (Homo sapiens, UniProt P05181); conditions: Table 6
CYP1A2 = target: T1, CYP1A2 (Homo sapiens, UniProt P05177); conditions: both, microsomes, pH 7.4
T1 sequence (P05177 1-516): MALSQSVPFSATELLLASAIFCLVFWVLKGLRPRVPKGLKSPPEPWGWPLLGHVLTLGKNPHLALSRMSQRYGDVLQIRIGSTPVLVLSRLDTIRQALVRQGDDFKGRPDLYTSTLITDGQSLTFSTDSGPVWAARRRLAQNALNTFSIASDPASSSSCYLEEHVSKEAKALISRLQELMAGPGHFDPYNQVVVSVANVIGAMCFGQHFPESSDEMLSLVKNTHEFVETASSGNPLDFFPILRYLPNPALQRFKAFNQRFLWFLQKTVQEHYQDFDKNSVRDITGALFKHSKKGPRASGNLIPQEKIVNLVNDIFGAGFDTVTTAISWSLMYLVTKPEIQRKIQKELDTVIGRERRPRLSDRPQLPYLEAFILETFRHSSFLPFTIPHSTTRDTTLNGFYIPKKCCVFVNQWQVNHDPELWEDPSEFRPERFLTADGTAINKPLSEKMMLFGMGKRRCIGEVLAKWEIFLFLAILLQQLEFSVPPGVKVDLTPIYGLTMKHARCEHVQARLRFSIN

CYP2B6 = target: T2, CYP2B6 (Homo sapiens, UniProt P20813); conditions: Table 6
T2 sequence (P20813 1-491): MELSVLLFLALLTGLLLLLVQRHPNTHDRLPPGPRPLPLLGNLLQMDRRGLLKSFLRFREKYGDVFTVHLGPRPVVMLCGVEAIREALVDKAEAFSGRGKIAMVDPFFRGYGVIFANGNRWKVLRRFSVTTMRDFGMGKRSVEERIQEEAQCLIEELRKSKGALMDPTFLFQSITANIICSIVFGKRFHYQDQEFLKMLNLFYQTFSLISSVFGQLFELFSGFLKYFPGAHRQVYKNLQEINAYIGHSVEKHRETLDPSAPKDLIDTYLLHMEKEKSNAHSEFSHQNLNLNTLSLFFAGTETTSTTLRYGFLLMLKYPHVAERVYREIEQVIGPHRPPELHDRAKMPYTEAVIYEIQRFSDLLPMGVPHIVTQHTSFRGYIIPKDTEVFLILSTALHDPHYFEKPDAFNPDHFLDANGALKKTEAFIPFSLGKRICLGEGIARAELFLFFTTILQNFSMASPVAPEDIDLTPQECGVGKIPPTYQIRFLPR

CYP2A6 [1] = target: T3, CYP2A6 (Homo sapiens, UniProt P11509); conditions: CYP2A6
T3 sequence (P11509 1-494): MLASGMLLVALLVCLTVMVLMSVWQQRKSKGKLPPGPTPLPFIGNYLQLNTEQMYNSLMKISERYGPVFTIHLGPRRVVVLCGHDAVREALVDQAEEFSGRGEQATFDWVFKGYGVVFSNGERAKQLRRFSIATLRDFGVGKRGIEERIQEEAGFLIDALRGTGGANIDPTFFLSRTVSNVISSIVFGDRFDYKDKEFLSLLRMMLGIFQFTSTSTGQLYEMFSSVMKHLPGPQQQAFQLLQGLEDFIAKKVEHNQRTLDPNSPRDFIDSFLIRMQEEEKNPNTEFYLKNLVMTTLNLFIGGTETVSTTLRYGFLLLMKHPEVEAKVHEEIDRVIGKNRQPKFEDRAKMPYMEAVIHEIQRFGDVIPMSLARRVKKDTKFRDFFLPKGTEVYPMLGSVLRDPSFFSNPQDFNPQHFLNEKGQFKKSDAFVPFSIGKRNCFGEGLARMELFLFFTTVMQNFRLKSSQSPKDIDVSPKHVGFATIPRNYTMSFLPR

in vitro = conditions: human, microsomes, pH 7.4, T1/2 (min) in human liver microsomes
Experimental: In vitro stability studies. […] Half-lives were calculated using the one-phase exponential decay equation (GraphPad).

CYP2D6 = CYP2D6 (Homo sapiens, UniProt P10635); assay: CYP2D6 inhibition assay, human liver microsomes, dextromethorphan probe (cocktail); conditions: Table 6
Sequence of CYP2D6 (P10635 whole entry): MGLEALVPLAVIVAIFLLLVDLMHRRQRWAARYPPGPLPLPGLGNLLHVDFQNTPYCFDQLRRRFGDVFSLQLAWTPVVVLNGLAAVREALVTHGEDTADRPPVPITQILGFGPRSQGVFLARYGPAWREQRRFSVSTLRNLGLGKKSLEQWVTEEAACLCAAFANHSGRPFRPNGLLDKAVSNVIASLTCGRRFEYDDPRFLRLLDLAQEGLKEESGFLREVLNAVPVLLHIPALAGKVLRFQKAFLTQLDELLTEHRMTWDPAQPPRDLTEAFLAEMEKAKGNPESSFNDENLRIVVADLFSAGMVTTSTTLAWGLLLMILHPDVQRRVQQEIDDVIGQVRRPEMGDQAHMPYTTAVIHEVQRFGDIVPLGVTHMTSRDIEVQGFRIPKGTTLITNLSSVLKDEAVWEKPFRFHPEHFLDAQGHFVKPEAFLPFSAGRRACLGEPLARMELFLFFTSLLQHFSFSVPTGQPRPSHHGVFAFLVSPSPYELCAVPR

CYP2C19 = CYP2C19 (Homo sapiens, UniProt P33261); assay: CYP2C19 inhibition assay, human liver microsomes, omeprazole probe (cocktail); conditions: Table 6
Sequence of CYP2C19 (P33261 whole entry): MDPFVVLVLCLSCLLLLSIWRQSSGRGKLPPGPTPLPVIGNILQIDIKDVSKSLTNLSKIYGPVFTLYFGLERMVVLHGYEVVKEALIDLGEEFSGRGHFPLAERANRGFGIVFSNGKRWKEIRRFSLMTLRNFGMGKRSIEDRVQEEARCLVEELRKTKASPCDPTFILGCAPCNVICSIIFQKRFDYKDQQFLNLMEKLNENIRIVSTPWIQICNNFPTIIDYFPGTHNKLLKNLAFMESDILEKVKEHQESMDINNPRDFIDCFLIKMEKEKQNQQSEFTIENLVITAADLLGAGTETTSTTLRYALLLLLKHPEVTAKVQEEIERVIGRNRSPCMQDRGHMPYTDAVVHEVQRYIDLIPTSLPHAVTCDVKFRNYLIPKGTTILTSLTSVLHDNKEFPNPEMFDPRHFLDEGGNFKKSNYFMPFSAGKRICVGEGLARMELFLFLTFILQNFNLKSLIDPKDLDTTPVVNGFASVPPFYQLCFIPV

CYP2C9 = CYP2C9 (Homo sapiens, UniProt P11712); assay: CYP2C9 inhibition assay, human liver microsomes, diclofenac probe (cocktail); conditions: Table 6
Sequence of CYP2C9 (P11712 whole entry): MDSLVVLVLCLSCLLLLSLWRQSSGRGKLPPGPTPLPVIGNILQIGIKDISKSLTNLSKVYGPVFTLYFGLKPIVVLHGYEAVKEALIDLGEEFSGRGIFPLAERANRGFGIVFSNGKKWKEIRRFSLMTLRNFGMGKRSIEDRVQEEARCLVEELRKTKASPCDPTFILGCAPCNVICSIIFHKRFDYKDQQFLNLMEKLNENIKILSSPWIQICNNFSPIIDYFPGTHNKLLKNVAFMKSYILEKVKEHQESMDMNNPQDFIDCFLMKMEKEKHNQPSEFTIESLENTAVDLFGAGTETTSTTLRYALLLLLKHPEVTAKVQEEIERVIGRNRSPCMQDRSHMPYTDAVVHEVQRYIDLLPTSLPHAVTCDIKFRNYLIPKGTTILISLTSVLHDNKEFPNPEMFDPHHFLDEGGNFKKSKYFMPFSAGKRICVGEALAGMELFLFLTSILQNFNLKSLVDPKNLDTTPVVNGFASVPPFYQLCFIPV

[2] = tested on: CYPs 1A2, 2B6, 2C8, 2C9, 2C19, 2D6, 2E1 and 3A4
CYP2C8 = target: T4, CYP2C8 (Homo sapiens, UniProt P10632); conditions: Table 6
T4 sequence (P10632 1-490): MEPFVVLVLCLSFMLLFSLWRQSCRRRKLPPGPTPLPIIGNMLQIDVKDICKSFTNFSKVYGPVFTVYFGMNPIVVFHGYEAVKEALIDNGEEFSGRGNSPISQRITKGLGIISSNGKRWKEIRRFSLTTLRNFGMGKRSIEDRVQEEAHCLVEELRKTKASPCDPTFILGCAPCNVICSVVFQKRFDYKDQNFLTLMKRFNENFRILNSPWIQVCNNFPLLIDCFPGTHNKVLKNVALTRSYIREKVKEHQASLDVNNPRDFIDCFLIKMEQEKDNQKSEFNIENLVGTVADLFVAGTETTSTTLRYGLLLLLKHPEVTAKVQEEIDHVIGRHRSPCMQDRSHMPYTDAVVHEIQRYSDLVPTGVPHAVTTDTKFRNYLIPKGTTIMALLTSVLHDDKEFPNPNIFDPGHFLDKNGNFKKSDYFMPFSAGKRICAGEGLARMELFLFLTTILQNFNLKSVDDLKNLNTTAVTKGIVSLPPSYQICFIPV

CYP2A6 [3] = target: T3, CYP2A6; assay: biochemical

Sequence of CYP2E1 (P05181 whole entry): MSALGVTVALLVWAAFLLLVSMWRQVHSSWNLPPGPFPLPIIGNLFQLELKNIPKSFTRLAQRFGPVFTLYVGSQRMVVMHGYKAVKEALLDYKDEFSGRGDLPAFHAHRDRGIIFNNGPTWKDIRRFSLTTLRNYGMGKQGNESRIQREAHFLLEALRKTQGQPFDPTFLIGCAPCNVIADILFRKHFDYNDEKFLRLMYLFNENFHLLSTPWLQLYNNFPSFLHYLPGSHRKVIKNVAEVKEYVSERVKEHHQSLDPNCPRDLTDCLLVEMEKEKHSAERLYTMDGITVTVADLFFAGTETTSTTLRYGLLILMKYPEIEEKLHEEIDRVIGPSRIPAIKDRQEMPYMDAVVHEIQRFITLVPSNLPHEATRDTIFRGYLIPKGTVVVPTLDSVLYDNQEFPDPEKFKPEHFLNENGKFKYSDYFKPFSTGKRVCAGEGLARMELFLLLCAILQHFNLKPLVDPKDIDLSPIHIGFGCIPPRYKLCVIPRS

With `NCC#Cc1cnccc1Cl` [Compound L, 3-(4-chloropyridin-3-yl)prop-2-yn-1-amine Dihydrochloride] the “IC50 ratio CYP2E1/CYP2A6” value (CYP2E1) was 10, the “IC50 ratio CYP1A2/CYP2A6” value (CYP1A2) was 33 and the “IC50 ratio CYP2B6/CYP2A6” value (CYP2B6) was 24. For the same compound, the “IC50 fold lower than that observed for the reference agent” value (CYP2A6 [1]) was 1.2 fold, the half-life at 10 μM (in vitro) was 28 min and the “IC50 ratio CYP2D6/CYP2A6” value (CYP2D6) was 29. For the same compound, the “IC50 ratio CYP2C19/CYP2A6” value (CYP2C19) was 61, the “IC50 ratio CYP2C9/CYP2A6” value (CYP2C9) was greater than 385 and the “IC50 ratio CYPhepatic/CYP2A6 against all hepatic CYP enzymes tested” value [2] was greater than 25. The “IC50 ratio CYP2C8/CYP2A6” value (CYP2C8) was greater than 192, the IC50 (CYP2A6 [3]; IC50 against CYP2A6 (μM), Table 5, alkyne linker agents, pooled human liver microsomes, coumarin […]) was 0.13 µM and the IC50 (CYP2A6 [3]; IC50 against CYP2A6, human liver microsomes) was less than 1 µM.
